Source: publication PMC11508649 (International Journal of Molecular Sciences, 2024)
Structures can show the parent of a compound that is named as a salt.

SMILES	melting point [°C]
COc1ccc2[nH]cc(C3CC(=O)N(CCCN4CC=C(c5c[nH]c6ncccc56)CC4)C3=O)c2c1 (stereo not drawn) (as salt: hydrochloride) [Compound 8, 1-(3-(4-(1H-Pyrrolo[2,3-b]pyridin-3-yl)-3,6-dihydropyridin-1(2H)-yl)propyl)-3-(5-methoxy-1H-indol-3-yl)pyrrolidine-2,5-dione]	111 to 115
O=C1CC(c2c[nH]c3ccc(F)cc23)C(=O)N1CCCCN1CC=C(c2c[nH]c3ncccc23)CC1 (stereo not drawn) (as salt: hydrochloride) [Compound 10, 1-(4-(4-(1H-Pyrrolo[2,3-b]pyridin-3-yl)-3,6-dihydropyridin-1(2H)-yl)butyl)-3-(5-fluoro-1H-indol-3-yl)pyrrolidine-2,5-dione]	98 to 102
O=C1CC(c2c[nH]c3ccc(F)cc23)C(=O)N1CCCN1CC=C(c2c[nH]c3ncccc23)CC1 (stereo not drawn) (as salt: hydrochloride) [Compound 11, 1-(3-(4-(1H-Pyrrolo[2,3-b]pyridin-3-yl)-3,6-dihydropyridin-1(2H)-yl)propyl)-3-(5-fluoro-1H-indol-3-yl)pyrrolidine-2,5-dione]	147 to 150
O=C1CC(c2c[nH]c3ccccc23)C(=O)N1CCN1CC=C(c2c[nH]c3ncccc23)CC1 (stereo not drawn) (as salt: hydrochloride) [Compound 6, 1-(2-(4-(1H-Pyrrolo[2,3-b]pyridin-3-yl)-3,6-dihydropyridin-1(2H)-yl)ethyl)-3-(1H-indol-3-yl)pyrrolidine-2,5-dione]	233 to 235
O=C1CC(c2c[nH]c3ccccc23)C(=O)N1CCCN1CC=C(c2c[nH]c3ncccc23)CC1 (stereo not drawn) (as salt: hydrochloride) [Compound 5, 1-(3-(4-(1H-Pyrrolo[2,3-b]pyridin-3-yl)-3,6-dihydropyridin-1(2H)-yl)propyl)-3-(1H-indol-3-yl)pyrrolidine-2,5-dione]	97 to 102
COc1ccc2[nH]cc(C3CC(=O)N(CCCCN4CC=C(c5c[nH]c6ncccc56)CC4)C3=O)c2c1 (stereo not drawn) (as salt: hydrochloride) [Compound 7, 1-(4-(4-(1H-Pyrrolo[2,3-b]pyridin-3-yl)-3,6-dihydropyridin-1(2H)-yl)butyl)-3-(5-methoxy-1H-indol-3-yl)pyrrolidine-2,5-dione]	140 to 144
O=C1CC(c2c[nH]c3ccc(F)cc23)C(=O)N1CCN1CC=C(c2c[nH]c3ncccc23)CC1 (stereo not drawn) (as salt: hydrochloride) [Compound 12, 1-(2-(4-(1H-Pyrrolo[2,3-b]pyridin-3-yl)-3,6-dihydropyridin-1(2H)-yl)ethyl)-3-(5-fluoro-1H-indol-3-yl)pyrrolidine-2,5-dione]	250 to 252
COc1ccc2[nH]cc(C3CC(=O)N(CCN4CC=C(c5c[nH]c6ncccc56)CC4)C3=O)c2c1 (stereo not drawn) (as salt: hydrochloride) [Compound 9, 1-(2-(4-(1H-Pyrrolo[2,3-b]pyridin-3-yl)-3,6-dihydropyridin-1(2H)-yl)ethyl)-3-(5-methoxy-1H-indol-3-yl)pyrrolidine-2,5-dione]	129 to 132
O=C1CC(c2c[nH]c3ccccc23)C(=O)N1CCCCN1CC=C(c2c[nH]c3ncccc23)CC1 (stereo not drawn) (as salt: hydrochloride) [Compound 4, 1-(4-(4-(1H-Pyrrolo[2,3-b]pyridin-3-yl)-3,6-dihydropyridin-1(2H)-yl)butyl)-3-(1H-indol-3-yl)pyrrolidine-2,5-dione]	172 to 177
